Measurements taken from the kinase profiling compilation of Christmann-Franck et al. (2016).

Columns and labels:
Test in all cases: KINOMEscan competition binding
Settings in all cases: compound 10.0 µM
[1] = target: MAP2K2 (human) (UniProt P36507)
[2] = target: CHUK (human) (UniProt O15111)
[3] = target: PIP5K1A (human) (UniProt Q99755)
[4] = test system: KIT (human), P10721 [D816V]
[5] = target: MAP2K1 (human) (UniProt Q02750)
[6] = target: AKT1 (human) (UniProt P31749)
[7] = target: BRSK1 (human) (UniProt Q8TDC3)
Chain of BRSK1 (human) (Q8TDC3 whole entry, looked up): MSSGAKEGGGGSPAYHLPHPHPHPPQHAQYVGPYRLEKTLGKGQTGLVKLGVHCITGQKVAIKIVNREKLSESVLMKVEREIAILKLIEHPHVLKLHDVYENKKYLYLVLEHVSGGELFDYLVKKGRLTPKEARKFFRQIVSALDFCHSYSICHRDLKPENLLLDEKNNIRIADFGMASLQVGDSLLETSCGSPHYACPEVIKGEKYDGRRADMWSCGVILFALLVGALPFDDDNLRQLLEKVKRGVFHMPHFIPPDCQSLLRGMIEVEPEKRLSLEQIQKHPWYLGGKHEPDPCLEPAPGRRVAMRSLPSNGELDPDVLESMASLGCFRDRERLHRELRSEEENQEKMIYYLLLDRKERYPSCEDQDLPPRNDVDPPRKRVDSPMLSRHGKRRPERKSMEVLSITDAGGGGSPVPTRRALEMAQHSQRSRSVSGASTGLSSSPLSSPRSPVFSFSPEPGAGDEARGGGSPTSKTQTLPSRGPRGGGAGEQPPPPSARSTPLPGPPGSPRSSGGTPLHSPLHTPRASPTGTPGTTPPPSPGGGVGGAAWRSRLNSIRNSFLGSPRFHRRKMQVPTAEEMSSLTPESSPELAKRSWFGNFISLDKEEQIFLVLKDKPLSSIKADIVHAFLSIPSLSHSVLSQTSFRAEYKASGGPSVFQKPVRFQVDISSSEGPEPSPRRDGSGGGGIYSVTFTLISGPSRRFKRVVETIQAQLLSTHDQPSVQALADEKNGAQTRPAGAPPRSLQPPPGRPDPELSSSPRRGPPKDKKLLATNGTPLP

[8] = target: ADCK3 (human) (UniProt Q8NI60)
[9] = target: DYRK1B (human) (UniProt Q9Y463)
Chain of DYRK1B (human) (Q9Y463 whole entry, looked up): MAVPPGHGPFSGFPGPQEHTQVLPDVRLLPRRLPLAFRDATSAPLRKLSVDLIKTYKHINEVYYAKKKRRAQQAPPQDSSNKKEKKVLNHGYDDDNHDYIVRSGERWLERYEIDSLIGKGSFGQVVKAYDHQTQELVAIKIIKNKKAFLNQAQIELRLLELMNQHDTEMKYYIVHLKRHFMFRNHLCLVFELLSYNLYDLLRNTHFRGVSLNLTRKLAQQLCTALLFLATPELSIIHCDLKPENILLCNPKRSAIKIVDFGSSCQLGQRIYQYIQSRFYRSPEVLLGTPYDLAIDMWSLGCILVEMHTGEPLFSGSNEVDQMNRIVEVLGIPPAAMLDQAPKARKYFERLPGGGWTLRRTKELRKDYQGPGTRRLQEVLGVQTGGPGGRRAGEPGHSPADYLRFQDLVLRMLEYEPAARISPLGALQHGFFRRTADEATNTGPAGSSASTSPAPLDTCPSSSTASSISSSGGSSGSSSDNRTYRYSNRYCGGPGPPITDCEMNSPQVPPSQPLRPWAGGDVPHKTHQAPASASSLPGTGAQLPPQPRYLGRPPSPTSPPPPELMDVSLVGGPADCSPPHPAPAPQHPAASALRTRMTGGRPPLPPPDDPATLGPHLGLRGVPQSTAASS

Chain of MAP2K2 (human) (P36507 whole entry, looked up): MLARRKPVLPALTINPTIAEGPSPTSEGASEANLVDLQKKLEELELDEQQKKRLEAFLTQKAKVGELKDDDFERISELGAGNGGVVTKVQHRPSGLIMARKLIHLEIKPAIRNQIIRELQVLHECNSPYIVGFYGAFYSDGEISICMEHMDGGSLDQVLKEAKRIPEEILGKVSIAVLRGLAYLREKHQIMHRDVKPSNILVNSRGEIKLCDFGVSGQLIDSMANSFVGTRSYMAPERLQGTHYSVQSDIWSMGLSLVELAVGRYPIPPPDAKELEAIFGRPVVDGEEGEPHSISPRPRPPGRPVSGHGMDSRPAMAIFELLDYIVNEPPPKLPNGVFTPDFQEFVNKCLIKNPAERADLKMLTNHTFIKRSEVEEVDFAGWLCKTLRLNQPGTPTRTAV
Chain of KIT (human), P10721 [D816V] (P10721 whole entry D816V, looked up): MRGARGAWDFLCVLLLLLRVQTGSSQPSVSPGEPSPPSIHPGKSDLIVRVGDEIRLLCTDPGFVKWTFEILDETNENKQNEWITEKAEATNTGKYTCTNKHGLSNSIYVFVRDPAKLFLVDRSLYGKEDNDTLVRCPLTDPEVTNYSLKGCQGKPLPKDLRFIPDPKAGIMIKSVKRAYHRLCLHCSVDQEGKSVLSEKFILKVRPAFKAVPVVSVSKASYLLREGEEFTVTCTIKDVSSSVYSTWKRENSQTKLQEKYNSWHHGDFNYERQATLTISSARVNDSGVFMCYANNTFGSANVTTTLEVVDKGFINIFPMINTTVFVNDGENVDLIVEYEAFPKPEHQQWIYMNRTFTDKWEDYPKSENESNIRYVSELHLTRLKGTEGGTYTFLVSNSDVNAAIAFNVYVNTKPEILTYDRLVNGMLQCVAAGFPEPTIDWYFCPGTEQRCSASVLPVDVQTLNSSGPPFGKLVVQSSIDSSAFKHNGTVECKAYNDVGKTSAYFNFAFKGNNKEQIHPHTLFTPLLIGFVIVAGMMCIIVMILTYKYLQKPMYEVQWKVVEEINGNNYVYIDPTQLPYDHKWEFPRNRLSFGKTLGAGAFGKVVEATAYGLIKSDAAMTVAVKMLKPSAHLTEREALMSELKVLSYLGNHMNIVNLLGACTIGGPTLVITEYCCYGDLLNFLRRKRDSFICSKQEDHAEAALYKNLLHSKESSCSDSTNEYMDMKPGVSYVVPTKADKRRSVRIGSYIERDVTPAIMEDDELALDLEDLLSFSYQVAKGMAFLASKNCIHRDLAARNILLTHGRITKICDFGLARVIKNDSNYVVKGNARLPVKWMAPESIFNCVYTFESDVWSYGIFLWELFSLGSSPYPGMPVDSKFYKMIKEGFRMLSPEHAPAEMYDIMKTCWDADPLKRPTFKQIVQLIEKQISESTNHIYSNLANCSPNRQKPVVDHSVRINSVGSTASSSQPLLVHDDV
Chain of MAP2K1 (human) (Q02750 whole entry, looked up): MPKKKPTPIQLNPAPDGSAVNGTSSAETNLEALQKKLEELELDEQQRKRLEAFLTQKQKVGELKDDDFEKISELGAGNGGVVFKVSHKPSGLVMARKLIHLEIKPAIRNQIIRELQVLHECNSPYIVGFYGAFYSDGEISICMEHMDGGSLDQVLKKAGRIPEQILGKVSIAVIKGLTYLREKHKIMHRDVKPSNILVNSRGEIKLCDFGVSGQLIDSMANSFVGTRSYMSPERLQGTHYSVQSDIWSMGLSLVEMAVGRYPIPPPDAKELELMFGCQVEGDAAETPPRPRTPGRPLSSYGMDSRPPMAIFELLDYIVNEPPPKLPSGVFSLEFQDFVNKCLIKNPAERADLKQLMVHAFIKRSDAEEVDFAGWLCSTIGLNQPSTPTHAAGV
Chain of PIP5K1A (human) (Q99755 whole entry, looked up): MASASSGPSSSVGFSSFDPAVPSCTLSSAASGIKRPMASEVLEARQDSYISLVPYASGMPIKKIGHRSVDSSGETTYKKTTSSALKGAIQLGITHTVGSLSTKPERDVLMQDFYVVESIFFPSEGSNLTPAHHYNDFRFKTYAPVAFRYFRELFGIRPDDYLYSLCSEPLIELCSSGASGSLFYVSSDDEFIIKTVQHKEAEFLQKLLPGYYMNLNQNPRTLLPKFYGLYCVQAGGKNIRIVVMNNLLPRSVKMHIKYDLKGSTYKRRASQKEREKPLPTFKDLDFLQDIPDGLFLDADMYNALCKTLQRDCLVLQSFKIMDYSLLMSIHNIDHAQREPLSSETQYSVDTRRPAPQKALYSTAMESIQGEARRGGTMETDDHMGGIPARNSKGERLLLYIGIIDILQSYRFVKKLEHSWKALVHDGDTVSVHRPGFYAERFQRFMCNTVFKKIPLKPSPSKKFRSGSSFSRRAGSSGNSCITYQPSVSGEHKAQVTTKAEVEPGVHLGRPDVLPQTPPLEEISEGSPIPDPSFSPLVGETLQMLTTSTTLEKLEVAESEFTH
Chain of AKT1 (human) (P31749 whole entry, looked up): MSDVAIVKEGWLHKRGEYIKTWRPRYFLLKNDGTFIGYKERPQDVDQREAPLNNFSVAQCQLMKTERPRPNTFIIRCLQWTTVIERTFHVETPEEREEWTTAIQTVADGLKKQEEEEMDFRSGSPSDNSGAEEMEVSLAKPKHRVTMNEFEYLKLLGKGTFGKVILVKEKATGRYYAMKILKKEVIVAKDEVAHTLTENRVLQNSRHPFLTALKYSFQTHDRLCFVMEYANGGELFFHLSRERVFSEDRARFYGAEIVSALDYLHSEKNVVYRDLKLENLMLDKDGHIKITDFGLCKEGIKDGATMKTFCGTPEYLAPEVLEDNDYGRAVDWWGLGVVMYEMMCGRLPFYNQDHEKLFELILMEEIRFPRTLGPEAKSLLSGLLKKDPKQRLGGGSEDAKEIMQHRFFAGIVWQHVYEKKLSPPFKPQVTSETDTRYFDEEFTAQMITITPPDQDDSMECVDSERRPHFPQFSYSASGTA
Chain of CHUK (human) (O15111 whole entry, looked up): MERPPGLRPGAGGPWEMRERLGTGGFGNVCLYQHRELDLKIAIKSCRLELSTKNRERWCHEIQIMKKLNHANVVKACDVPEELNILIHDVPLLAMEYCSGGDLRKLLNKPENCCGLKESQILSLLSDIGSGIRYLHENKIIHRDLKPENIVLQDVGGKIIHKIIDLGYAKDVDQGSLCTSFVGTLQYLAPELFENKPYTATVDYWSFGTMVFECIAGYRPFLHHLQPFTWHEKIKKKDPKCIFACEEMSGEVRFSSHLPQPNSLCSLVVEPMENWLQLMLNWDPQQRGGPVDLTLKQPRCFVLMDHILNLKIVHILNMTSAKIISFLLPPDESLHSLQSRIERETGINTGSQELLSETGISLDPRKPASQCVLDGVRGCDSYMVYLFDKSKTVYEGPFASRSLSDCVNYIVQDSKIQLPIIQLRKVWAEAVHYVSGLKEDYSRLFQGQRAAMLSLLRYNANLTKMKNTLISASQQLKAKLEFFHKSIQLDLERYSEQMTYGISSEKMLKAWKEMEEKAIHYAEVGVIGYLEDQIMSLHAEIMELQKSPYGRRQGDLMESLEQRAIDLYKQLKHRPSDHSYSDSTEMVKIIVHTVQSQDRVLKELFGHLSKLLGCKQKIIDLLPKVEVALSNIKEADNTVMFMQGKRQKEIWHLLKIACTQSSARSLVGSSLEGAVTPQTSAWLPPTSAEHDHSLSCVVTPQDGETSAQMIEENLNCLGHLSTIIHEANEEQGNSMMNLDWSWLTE

kinase still bound, per cent of control [1]: 60%
kinase still bound, per cent of control [2]: 51%
kinase still bound, per cent of control [3]: 73%
kinase still bound, per cent of control [4]: 1.7%
kinase still bound, per cent of control [5]: 76%
kinase still bound, per cent of control [6]: 100%
kinase still bound, per cent of control [7]: 86%
kinase still bound, per cent of control [8]: 100%
kinase still bound, per cent of control [9]: 96%
SMILES: O=C(Nc1ccc(Oc2ncnc3[nH]ncc23)cc1)Nc1ccc(Cl)c(C(F)(F)F)c1
